Reference: patent US10703764B2, “Benzopiperazine compositions as BET bromodomain inhibitors” (FORMA Therapeutics, Inc., priority 2013, dated 2020)

Key:
BRD4 BD1 = target: T1, BRD4 BD1 (Homo sapiens, UniProt O60885); assay: AlphaScreen binding assay, BRD4 Bromodomain 1
T1 construct: made in house
Procedure, shortened: (§1)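 Compound dilution series were mixed with His-tagged BRD4 bromodomain and biotinylated tetra-acetylated H4 (1-21) peptide at pH 7.3 (BD1 and peptide at 50 nM, BD2 and peptide at 100 nM). Donor and acceptor beads were then added, and plates were equilibrated at least 1 h before reading. IC50 values were fitted with a four-parameter logistic model.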

BRD4 BD2 = target: T2, BRD4 BD2 (Homo sapiens, UniProt O60885); assay: AlphaScreen binding assay, BRD4 Bromodomain 2
T2 construct: made in house
Procedure, shortened: as §1

SMILES | IC50 (BRD4 BD1) [µM] | IC50 (BRD4 BD2) [µM]
COC(=O)N1c2ccc(-c3ccc(CS(N)(=O)=O)cc3)cc2N(C(=O)C2CC2)C[C@@H]1C [Example I-460] | 1 to 10 | 0.05 to 0.5
COC(=O)N1c2ccc(-c3ccc(S(=O)(=O)CCN)cc3)cc2N(C(=O)C2CC2)C[C@@H]1C [Example I-461] | 1 to 10 | 0.05 to 0.5
COC(=O)N1c2ccc(-c3ccc(S(=O)(=O)CCO)cc3)cc2N(C(=O)C2CC2)C[C@@H]1C [Example I-462] | 1 to 10 | 0.05 to 0.5
COC(=O)N1c2ccc(-c3ccc(C(=O)NCCN)cc3)cc2N(C(=O)C2CC2)C[C@@H]1C [Example I-463] | 1 to 10 | 0.05 to 0.5
COC(=O)N1c2ccc(-c3cn(C)nn3)cc2N(C(=O)C2CC2)C[C@@H]1C [Example I-464] | 1 to 10 | 0.05 to 0.5
CC(C)OC(=O)N1C[C@H](C)N(C(=O)C2CC2)c2ccc(-c3ccc(C(=O)NCCN)cc3)cc21 [Example I-481] | 0.1 to 1 | > 0.5
COC(=O)N1c2ccc(-c3ccc(N4CCCS4(=O)=O)cc3)cc2N(C(=O)OC(C)C)C[C@@H]1C [Example I-484] | 0.1 to 1 | > 0.5
COC(=O)N1c2ccc(-c3ccc(CS(N)(=O)=O)cc3)cc2N(C(=O)OC(C)C)C[C@@H]1C [Example I-487] | 0.1 to 1 | > 0.5
COC(=O)N1c2ccc(-c3ccc(S(=O)(=O)CCN)cc3)cc2N(C(=O)OC(C)C)C[C@@H]1C [Example I-488] | 0.1 to 1 | 0.05 to 0.5
COC(=O)N1c2ccc(-c3ccc(C(=O)NCCN)cc3)cc2N(C(=O)OC(C)C)C[C@@H]1C [Example I-489] | 1 to 10 | > 0.5
CC(=O)N1c2ccc(-c3ncco3)cc2N(C(=O)c2ccco2)C[C@@H]1C [Example I-491] | 1 to 10 | 0.05 to 0.5
CC(=O)N1c2ccc(-c3ccc(N(C)S(C)(=O)=O)cc3)cc2N(C(=O)c2ccco2)C[C@@H]1C [Example I-492] | 0.1 to 1 | < 0.05
CC(=O)N1c2ccc(-c3ccc(S(C)(=O)=O)cc3)cc2N(C(=O)OC2COC2)C[C@@H]1C [Example I-497] | 1 to 10 | > 0.5
COc1ccc(OC(=O)N2C[C@H](C)N(C(C)=O)c3ccc(-c4cnn(C5CC5)c4)cc32)c(Cl)c1 [Example I-505] | 1 to 10 | 0.05 to 0.5
CC(=O)N1c2ccc(-c3cnn(C4CC4)c3)cc2N(C(=O)Oc2cccnc2C)C[C@@H]1C [Example I-514] | 1 to 10 | 0.05 to 0.5
CC(=O)N1c2ccc(-c3cnn(C4CC4)c3)cc2N(C(=O)Oc2ccc(C)cc2C)C[C@@H]1C [Example I-516] | 1 to 10 | 0.05 to 0.5
CC(=O)N1c2ccc(-c3cnn(C4CC4)c3)cc2N(C(=O)Oc2cncc(C)c2)C[C@@H]1C [Example I-520] | 1 to 10 | 0.05 to 0.5
CC(=O)N1c2ccc(-c3cnn(C4CC4)c3)cc2N(C(=O)Oc2cncc3ccccc23)C[C@@H]1C [Example I-525] | 1 to 10 | 0.05 to 0.5
CC(=O)N1c2ccc(-c3cnn(C4CC4)c3)cc2N(C(=O)Oc2ccc(C#N)cc2Cl)C[C@@H]1C [Example I-528] | 1 to 10 | 0.05 to 0.5
COc1ccc(Cl)c(OC(=O)N2C[C@H](C)N(C(C)=O)c3ccc(-c4cnn(C5CC5)c4)cc32)c1 [Example I-531] | 1 to 10 | 0.05 to 0.5
CC(=O)N1c2ccc(-c3ccc(C(=O)Nc4ccccc4)cc3)cc2N(C(=O)OC(C)C)C[C@@H]1C [Example I-535] | 1 to 10 | 0.05 to 0.5
COC(=O)N1c2ccc(-c3ccc(C(=O)NCc4ncco4)cc3)cc2N(C(=O)OC(C)C)C[C@@H]1C [Example I-583] | 1 to 10 | > 0.5
CC(C)OC(=O)N1C[C@H](C)N(C(=O)C2CC2)c2ccc(-c3ccc(C(=O)NCc4ncco4)cc3)cc21 [Example I-585] | 1 to 10 | > 0.5
CC(C)OC(=O)N1C[C@H](C)N(C(=O)C2CC2)c2ccc(-c3cnn(CC(=O)N(C)C4CC4)c3)cc21 [Example I-610] | 1 to 10 | 0.05 to 0.5
CC(C)OC(=O)N1C[C@H](C)N(C(=O)C2CC2)c2ccc(-c3cnn(CCNS(C)(=O)=O)c3)cc21 [Example I-613] | 1 to 10 | > 0.5
CC(C)OC(=O)N1C[C@H](C)N(C(=O)C2CC2)c2ccc(-c3cnn(CC(=O)N4CCCCC4)c3)cc21 [Example I-614] | 1 to 10 | 0.05 to 0.5
CC(C)OC(=O)N1C[C@H](C)N(C(=O)C2CC2)c2ccc(-c3cnn(CC#N)c3)cc21 [Example I-622] | 1 to 10 | > 0.5
COC(=O)N1c2ccc(-c3cnn(CC(=O)N4CCCCC4)c3)cc2N(C(=O)OC(C)C)C[C@@H]1C [Example I-629] | 1 to 10 | 0.05 to 0.5
COC(=O)N1c2ccc(-c3cnn(CC4CCC4)c3)cc2N(C(=O)OC(C)C)C[C@@H]1C [Example I-635] | 1 to 10 | > 0.5
COC(=O)N1c2ccc(-c3cnn(CC#N)c3)cc2N(C(=O)OC(C)C)C[C@@H]1C [Example I-639] | 1 to 10 | > 0.5
